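Assay format: 96-well plates, 48-hour exposure. At the TGI there is no net growth.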

What all share (experiment): NCI-60 cell line screen, 48 h
For assay [1], the system named is A549 NSCLC.
For assay [2], the system named is A498 renal.
In assay [3] the test system is HL-60(TB) leukemia.
Assay [4] deals with SK-MEL-2 melanoma.
In assay [5] the test system is NCI-H226 lung.
The subject of assay [6] is MALME-3M melanoma.
The subject of assay [7] is SNB-78 CNS.
The test system of assay [8] is SK-OV-3 ovarian.
Assay [9] concerns M19-MEL melanoma.
The subject of assay [10] is UACC-257 melanoma.
The test system of assay [11] is HT29 colon.
Assay [12] relates to CCRF-CEM leukemia.
In assay [13] the test system is NCI-H460 lung.
The test system of assay [14] is SF-539 CNS.
Assay [15] relates to UACC-62 melanoma.
In assay [16] the test system is NCI-H522 lung.
Assay [17] relates to OVCAR-4 ovarian.
The test system of assay [18] is SNB-75 CNS.
In assay [19] the test system is HCC-2998 colon.
The test system of assay [20] is OVCAR-5 ovarian.

For `O=C(O)CNS(=O)(=O)c1ccc(NC(=O)Nc2ccccc2)cc1`, the TGI in [1] was greater than 100 µM; in assay [2], greater than 100 µM; in [3], greater than 31.6 µM; in assay [4], greater than 100 µM; in assay [5] it was greater than 100 µM; in assay [6], greater than 100 µM. Further, the TGI is greater than 100 µM in assay [7]; greater than 100 µM in assay [8]; greater than 55.5 µM in assay [9]; greater than 100 µM in [10]; greater than 100 µM in assay [11]; greater than 100 µM in [12]. Moreover, the TGI in assay [13] is greater than 100 µM; in assay [14] it was greater than 100 µM; in assay [15] it was greater than 52.9 µM; in assay [16] it was greater than 100 µM; in assay [17], greater than 100 µM; in assay [18] it was greater than 100 µM. For the same molecule, the TGI in [19] and in assay [20] was greater than 100 µM each time.
Regarding `CC(C)(O)[C@H](CCO)O[Si](c1ccccc1)(c1ccccc1)C(C)(C)C`, the TGI was determined as 22.1 µM in [1]; 30.9 µM in [2]; 20.1 µM in [3]; 28.4 µM in assay [4]; 31.5 µM in assay [6]; 29.8 µM in assay [7]. The TGI in [8] worked out at 24.5 µM; in assay [9], 29.3 µM; in assay [10], 29.7 µM; in assay [11], 24.6 µM; in [12], 32.2 µM; in assay [13], 26.7 µM. The TGI was 27.3 µM in [14]; 24.1 µM in assay [15]; 20.1 µM in assay [16]; 22.9 µM in [18]; 18.1 µM in assay [19]; 28.1 µM in assay [20].
As for `COc1cc2c(cc1OC)C(Cc1c3ccccc3cc3ccccc13)N(C)CC2` (stereo unspecified), the TGI in assay [1] is greater than 100 µM; in [2], 43.6 µM; in [3], 31.3 µM; in assay [4], 32.6 µM; in assay [5], 60.2 µM; in assay [7], greater than 73.1 µM. Further, the TGI in assay [8] was 84.5 µM; in assay [9] it was 49.8 µM; in assay [10] it was 35.5 µM; in assay [11], 31 µM; in [12], 93 µM; in assay [13], 61.3 µM. The TGI in assay [14] was 47.1 µM; in [15] it was 40.8 µM; in assay [16], 60 µM; in [17], greater than 100 µM; in assay [18], 37.2 µM; in assay [20] it was 40.2 µM.
For `CCNCCCCNCC`, the TGI in [1] was greater than 3750 µM; in [2], greater than 3750 µM; in assay [3], greater than 1190 µM; in assay [4], greater than 3750 µM; in assay [5], greater than 3750 µM; in assay [6], greater than 3750 µM. In addition, the TGI in assay [7], in assay [8], in [9], in assay [10], in assay [11] and in assay [12] was greater than 3750 µM each time. Moreover, the TGI is greater than 1190 µM in [13]; greater than 3750 µM in assay [14]; greater than 3750 µM in [15]; greater than 3750 µM in assay [16]; greater than 3750 µM in assay [17]; greater than 3750 µM in assay [18]. Moreover, the TGI in assay [19] and in assay [20] was greater than 3750 µM in each case.
As for `CC1=C2C(O)C(C(C)C(=O)NC(C)C)CCC2(C)C=CC1=O` (stereo unspecified), the TGI in assay [1], in [2], in assay [3], in [4], in assay [5] and in assay [7] was greater than 100 µM in each case. The TGI in assay [8], in assay [10], in assay [11], in [12], in [13] and in [14] was greater than 100 µM each time. Besides, the TGI in assay [15], in assay [16], in [17], in [18], in assay [19] and in [20] was greater than 100 µM throughout.
In the case of `Cn1c(=O)c2nc(N3CCCCC3)cnc2n(C)c1=O`, the TGI in assay [1], in assay [2], in assay [3], in [6], in [8] and in [9] was greater than 100 µM in each case. In addition, the TGI in assay [10], in assay [11], in assay [12], in assay [13], in assay [14] and in [15] was greater than 100 µM each time. Moreover, the TGI in [16], in assay [17], in assay [18], in [19] and in [20] was greater than 100 µM throughout.
Take `Cc1cc(N=Nc2ccc(N=Nc3c(O)c(S(=O)(=O)O)cc4cc(S(=O)(=O)O)ccc34)cc2C)ccc1N=Nc1ccc2cc(S(=O)(=O)O)cc(S(=O)(=O)O)c2c1`: the TGI in [1], in [2], in assay [3], in [4], in [5] and in assay [6] was greater than 100 µM each time. Also, the TGI in assay [7] was greater than 100 µM; in assay [8] it was greater than 100 µM; in assay [9], greater than 100 µM; in assay [10] it was greater than 100 µM; in [11], greater than 31.6 µM; in [12], greater than 100 µM. Besides, the TGI in assay [13], in [14], in assay [15], in [16], in assay [17] and in assay [18] was greater than 100 µM each time. Further, the TGI in assay [19] and in assay [20] was greater than 100 µM in each case.
Regarding `COC(=O)NN1C(=O)C(=P(c2ccccc2)(c2ccccc2)c2ccccc2)C(C(=O)OC)=C1C`, the TGI in [2], in assay [3], in assay [4], in [5], in assay [6] and in assay [7] was greater than 100 µM in each case. For the same molecule, the TGI in assay [8], in assay [9], in assay [11], in assay [12], in assay [13] and in assay [14] was greater than 100 µM in each case. For the same molecule, the TGI in assay [15], in [16] and in assay [18] was greater than 100 µM each time.
